Results: PubChem BioAssay AID1259407 (Chemical Carcinogenesis Research Information System (CCRIS), 2018)
Calls of active or inactive are those of the source. The rule behind the calls is not given here.

System: CCRIS mutagenicity, Ames/micronucleus/aberration tests
Assay: CCRIS mutagenicity studies
[1] = Test System: AMES SALMONELLA TYPHIMURIUM, Strain/Indicator: TA100, Metabolic Activation: NONE, Method: PREINCUBATION
[2] = Test System: AMES SALMONELLA TYPHIMURIUM, Strain/Indicator: TA100, Metabolic Activation: NONE, Method: STANDARD PLATE
[3] = Test System: AMES SALMONELLA TYPHIMURIUM, Strain/Indicator: TA1535, Metabolic Activation: NONE, Method: STANDARD PLATE
[4] = Test System: AMES SALMONELLA TYPHIMURIUM, Strain/Indicator: TA98, Metabolic Activation: NONE, Method: STANDARD PLATE
[5] = Test System: AMES SALMONELLA TYPHIMURIUM, Strain/Indicator: TA1538, Metabolic Activation: NONE, Method: STANDARD PLATE
[6] = Test System: AMES SALMONELLA TYPHIMURIUM, Strain/Indicator: TA98, Metabolic Activation: RAT, LIVER, S-9, AROCLOR 1254, Method: STANDARD PLATE
[7] = Test System: AMES SALMONELLA TYPHIMURIUM, Strain/Indicator: TA100, Metabolic Activation: RAT, LIVER, S-9, AROCLOR 1254, Method: STANDARD PLATE

SMILES: C=COc1ccc([N+](=O)[O-])cc1
- mutagenic call (Test System: AMES SALMONELLA TYPHIMURIUM, Strain/Indicator: TA100(NR), Metabolic Activation: MOUSE, LIVER, S-13, Method: STANDARD PLATE): active; positive
- mutagenic call (Test System: AMES SALMONELLA TYPHIMURIUM, Strain/Indicator: TA100(NR), Metabolic Activation: NONE, Method: PREINCUBATION): inactive; negative
- mutagenic call (Test System: AMES SALMONELLA TYPHIMURIUM, Strain/Indicator: TA100(NR), Metabolic Activation: NONE, Method: STANDARD PLATE): inactive; negative
- mutagenic call (Test System: AMES SALMONELLA TYPHIMURIUM, Strain/Indicator: TA100(NR), Metabolic Activation: RAT, LIVER, S-9, PCB, Method: PREINCUBATION): active; positive
- mutagenic call (Test System: AMES SALMONELLA TYPHIMURIUM, Strain/Indicator: TA100, Metabolic Activation: MOUSE, LIVER, S-13, Method: STANDARD PLATE): active; positive
- mutagenic call [1]: active; positive
- mutagenic call [2]: active; positive
- mutagenic call (Test System: AMES SALMONELLA TYPHIMURIUM, Strain/Indicator: TA100, Metabolic Activation: RAT, LIVER, S-9, PCB, Method: PREINCUBATION): active; positive
- mutagenic call (Test System: AMES SALMONELLA TYPHIMURIUM, Strain/Indicator: TA1535, Metabolic Activation: MOUSE, LIVER, S-13, Method: STANDARD PLATE): active; positive
- mutagenic call [3]: inactive; negative

SMILES: Nc1ccc(O)c(C(=O)O)c1
- mutagenic call (Test System: AMES SALMONELLA TYPHIMURIUM, Strain/Indicator: TA98, Metabolic Activation: NONE, Method: PREINCUBATION): inactive; negative
- mutagenic call (Test System: AMES SALMONELLA TYPHIMURIUM, Strain/Indicator: TA98, Metabolic Activation: S-9, Method: PREINCUBATION): inactive; negative
- mutagenic call [1]: inactive; negative
- mutagenic call (Test System: AMES SALMONELLA TYPHIMURIUM, Strain/Indicator: TA100, Metabolic Activation: S-9, Method: PREINCUBATION): inactive; negative
- mutagenic call (Test System: AMES SALMONELLA TYPHIMURIUM, Strain/Indicator: TA1535, Metabolic Activation: NONE, Method: PREINCUBATION): inactive; negative
- mutagenic call (Test System: AMES SALMONELLA TYPHIMURIUM, Strain/Indicator: TA1535, Metabolic Activation: S-9, Method: PREINCUBATION): inactive; negative
- mutagenic call (Test System: AMES SALMONELLA TYPHIMURIUM, Strain/Indicator: TA1537, Metabolic Activation: NONE, Method: PREINCUBATION): inactive; negative
- mutagenic call (Test System: AMES SALMONELLA TYPHIMURIUM, Strain/Indicator: TA1537, Metabolic Activation: S-9, Method: PREINCUBATION): inactive; negative
- mutagenic call (Test System: E. COLI, Strain/Indicator: WP2 UVRA, Metabolic Activation: NONE, Method: PREINCUBATION): inactive; negative
- mutagenic call (Test System: E. COLI, Strain/Indicator: WP2 UVRA, Metabolic Activation: S-9, Method: PREINCUBATION): inactive; negative

SMILES: Cc1cccc(OCC(O)CNC(C)(C)C)c1C (centres undefined)
- mutagenic call [4]: inactive; negative
- mutagenic call (Test System: AMES SALMONELLA TYPHIMURIUM, Strain/Indicator: TA98, Metabolic Activation: S-9, Method: STANDARD PLATE): inactive; negative
- mutagenic call [2]: inactive; negative
- mutagenic call (Test System: AMES SALMONELLA TYPHIMURIUM, Strain/Indicator: TA100, Metabolic Activation: S-9, Method: STANDARD PLATE): inactive; negative
- mutagenic call [3]: inactive; negative
- mutagenic call (Test System: AMES SALMONELLA TYPHIMURIUM, Strain/Indicator: TA1535, Metabolic Activation: S-9, Method: STANDARD PLATE): inactive; negative
- mutagenic call (Test System: AMES SALMONELLA TYPHIMURIUM, Strain/Indicator: TA1537, Metabolic Activation: NONE, Method: STANDARD PLATE): inactive; negative
- mutagenic call (Test System: AMES SALMONELLA TYPHIMURIUM, Strain/Indicator: TA1537, Metabolic Activation: S-9, Method: STANDARD PLATE): inactive; negative
- mutagenic call [5]: inactive; negative
- mutagenic call (Test System: AMES SALMONELLA TYPHIMURIUM, Strain/Indicator: TA1538, Metabolic Activation: S-9, Method: STANDARD PLATE): inactive; negative
- mutagenic call (Test System: E. COLI WP2, Strain/Indicator: WP2 UVRA, Metabolic Activation: NONE, Method: STANDARD PLATE): inactive; negative
- mutagenic call (Test System: E. COLI WP2, Strain/Indicator: WP2 UVRA, Metabolic Activation: S-9, Method: STANDARD PLATE): inactive; negative

SMILES: C/C=C\C1=CC(=O)[C@]23C[C@H]2C(C)(C)O[C@]3(O)C1=O
- mutagenic call (Test System: AMES SALMONELLA TYPHIMURIUM, Strain/Indicator: TA97, Metabolic Activation: NONE): inactive; negative
- mutagenic call (Test System: AMES SALMONELLA TYPHIMURIUM, Strain/Indicator: TA98, Metabolic Activation: NONE): inactive; negative
- mutagenic call (Test System: AMES SALMONELLA TYPHIMURIUM, Strain/Indicator: TA100, Metabolic Activation: NONE): active; positive
- mutagenic call (Test System: AMES SALMONELLA TYPHIMURIUM, Strain/Indicator: TA102, Metabolic Activation: NONE): active; positive

SMILES: O=C(O)C[C@H](NC(=O)COc1cc(Cl)c(Cl)cc1Cl)C(=O)O
- mutagenic call (Test System: AMES SALMONELLA TYPHIMURIUM, Strain/Indicator: TA97, Metabolic Activation: NONE, Method: STANDARD PLATE): inactive; negative
- mutagenic call (Test System: AMES SALMONELLA TYPHIMURIUM, Strain/Indicator: TA97, Metabolic Activation: RAT, LIVER, S-9, AROCLOR 1254, Method: STANDARD PLATE): inactive; negative
- mutagenic call [4]: inactive; negative
- mutagenic call [6]: inactive; negative
- mutagenic call [2]: inactive; negative
- mutagenic call [7]: inactive; negative
- mutagenic call [3]: inactive; negative
- mutagenic call (Test System: AMES SALMONELLA TYPHIMURIUM, Strain/Indicator: TA1535, Metabolic Activation: RAT, LIVER, S-9, AROCLOR 1254, Method: STANDARD PLATE): inactive; negative
- mutagenic call [5]: inactive; negative
- mutagenic call (Test System: AMES SALMONELLA TYPHIMURIUM, Strain/Indicator: TA1538, Metabolic Activation: RAT, LIVER, S-9, AROCLOR 1254, Method: STANDARD PLATE): inactive; negative

SMILES: Cc1cccc2c1-c1ccccc1C2C (centres undefined)
- mutagenic call [6]: active; positive
- mutagenic call [7]: active; positive

SMILES: O=[N+]([O-])c1cc2c(ccc3cc(N(CCCl)CCCl)ccc32)o1
- mutagenic call (Test System: AMEA SALMONELLA TYPHIMURIUM, Strain/Indicator: TA100(NR), Metabolic Activation: NONE, Method: STANDARD PLATE): active; positive
- mutagenic call (Test System: AMES SALMONELLA TYPHIMURIUM, Strain/Indicator: TA100(NR), Metabolic Activation: RAT, LIVER, S-9, AROCLOR 1254, Method: STANDARD PLATE): active; positive
- mutagenic call [2]: active; positive
- mutagenic call [7]: active; positive

SMILES: Cc1c2ccccc2cc2c1ccc1ccccc12
- mutagenic call (Test System: AMES SALMONELLA TYPHIMURIUM, Strain/Indicator: TA98, Method: STANDARD PLATE): active; positive
- mutagenic call (Test System: AMES SALMONELLA TYPHIMURIUM, Strain/Indicator: TA100, Metabolic Activation: RAT, INTACT HEPATOCYTES, AROCLOR 1254, Method: PREINCUBATION): active; positive
- mutagenic call [7]: active; positive
- mutagenic call (Test System: AMES SALMONELLA TYPHIMURIUM, Strain/Indicator: TA100, Metabolic Activation: RAT, LIVER, S-9, PHENOBARBITAL, Method: STANDARD PLATE): active; positive
- mutagenic call (Test System: AMES SALMONELLA TYPHIMURIUM, Strain/Indicator: TA100, Metabolic Activation: RAT, NADPH-FORTIFIED HOMOGENIZED HEPATOCYTES, AROCLOR 1254, Method: PREINCUBATION): active; positive
- mutagenic call (Test System: AMES SALMONELLA TYPHIMURIUM, Strain/Indicator: TA100, Metabolic Activation: RAT, SONICATED HEPATOCYTES, AROCLOR 1254, Method: PREINCUBATION): active; positive
- mutagenic call (Test System: AMES SALMONELLA TYPHIMURIUM, Strain/Indicator: TA100, Method: STANDARD PLATE): active; positive
- mutagenic call (Test System: CHINESE HAMSTER V-79, Strain/Indicator: V-79/8-AZAGUANINE, Metabolic Activation: CELL-MEDIATED, Method: STANDARD PLATE): active; positive
- mutagenic call (Test System: CHINESE HAMSTER V-79, Strain/Indicator: V-79/8-AZAGUANINE, Metabolic Activation: NONE, Method: STANDARD PLATE): active; positive
- mutagenic call (Test System: CHINESE HAMSTER V-79, Strain/Indicator: V-79/OUABAIN, Metabolic Activation: CELL-MEDIATED, Method: STANDARD PLATE): active; positive

SMILES: O=Cc1ccc2ccc3cccc4ccc1c2c34
- mutagenic call [6]: active; positive
- mutagenic call [7]: active; positive
